One compound from patent publication EP4057003A1, “SELECTIVE SULFATE ANION DETECTION USING GUANYLATED FLUOROPHORES” (Universidad de Castilla la Mancha, priority 2021, dated 2022) can be followed below.

A short description of series [1]: Association constant from fluorescence titration data, Scatchard plot method. It is filed as binding. The method, then: (§1) For ion interaction experiments, an aqueous solution of guanylated fluorophore (A) (10 µM) was titrated with different salt solutions (CaCl2, KCI, NaCl, NaCH3COO, KSCN, Na2CO3, Na2SO3, SDS, Na2HPO4, Na3PO4, AgNO3, MgSO4, CuSO4, and NiSO4). Different concentrations of ions were tested from 0 to 100 µM and steady-state fluorescence (SSF) spectra were acquired. All measurements were performed using 10 mm quartz cuvette (Hellma Analytics).
Chem. Commun. (Cambridge, United Kingdom) 2003, 2 (6), 792-793. https://doi.org/10.1039/b300098b)by the following equation (i): [SO4^(2−)] = (1)/(nKa)(1)/([F]0^(n−1))(1−α)/(α^n) [formula] where; α is defined as the ratio between concentration of free fluorophore (e.g. [F] and initial [F]0 fluorophore concentration, e.g. for the guanylated fluorophore (A), and can be determined from the fluorescence difference at any titration stage; n is the stoichiometry to the studied complex Fn(SO4^2-)m.
The data of figure 5d of example 3 was fitted to equation (i) as shown in: • Figure 7a for the 1:1 complex of guanylated fluorophore (A) and sulfate anion (i.e., (A)(SO4^2-), complex A) • Figure 7b for the a 2:1 complex of guanylated fluorophore (A) and sulfate anion (i.e., (A)2(SO4^2-), complex B)

Series [2] is described as follows: Ion recognition: fluorescence change on addition of salts in water. As to the method: […] Different concentrations of ions were tested from 0 to 100 µM and steady-state fluorescence (SSF) spectra were acquired. All measurements were performed using 10 mm quartz cuvette (Hellma Analytics).
(§2) Steady-state fluorescence (SSF) spectra of the samples were recorded employing an FLS920 (Edinburgh Instruments) spectrofluorometer equipped with a MCP-PMT (microchannel plate-photomultiplier tube) detector (R3809 model) and a TCSPC (time-correlated single photon counting) data acquisition card (TCC900 model). A TLC 50 temperature-controlled cuvette holder (Quantum Northwest) was employed for the measurements (temperature was controlled at 296 K, which corresponds to 22.85 °C). A Xe lamp of 450 W was used as the light source for SSF spectra. […]
Although the fluorescence intensity of guanylated fluorophore (A) was the same for most of the ions, the presence of sulfate anions (added to a concentration of 100 µM) caused -2-fold fluorescence quenching in guanylated fluorophore (A) (at a concentration of 10 µM) (Figure 5a). […] More importantly, for the same titration a gradual fluorescence decrease without any shift in the emission spectra was observed (see Figure 5c).
Figure 6b collects the fluorescence changes (%) of guanylated fluorophore (A) when successive quantities of 100 µM of anions are added over 5µM solution of A in water.

The nature of series [3]: pH titration of aqueous solution, UV-Vis absorption and steady-state fluorescence (pH dependence, pKa). It is filed as physicochemical. The method, then: For experiments in water, stock solutions (1 mM) of guanylated fluorophore (A) in ethanol were used. All aqueous solutions were prepared by diluting the stock solution in Milli-Q water to the desired concentration and filtered with 0.22 µm filters before use. For the pH titration experiments, aqueous solutions of guanylated fluorophore (A) (10 µM) were titrated by the successive addition of small volumes (in the order of microliters) of HCI and NaOH solutions of different concentrations (0.01-10 M) to an initial volume of 25 mL to minimize changes in the sample volume. UV-Vis absorption, SSF spectra were recorded.
UV-Vis absorption spectra of guanylated fluorophore (A) were recorded at room temperature using a Cary 100 (Varian) spectrophotometer using a slit width of 0.4 nm and a scan rate of 600 nm/min.
as §2

Series [4] in a line: Anion selectivity, fluorescence decrease on addition of anion in water (Figure 6a). To be noted: 100 µM anion. The method, then:
as §1
The selectivity of guanylated fluorophore (A) was tested with different anions (Figure 6a). […] It is important to emphasize that the selectivity of guanylated fluorophore (A) was tested in water, where the presence of cations like Ca^2+, Ni^2+, K^+, Na^+ or Mg^2+ or anions like HPO4^2- NO^3- and Cl^- normally presented in this media will not affect the final recognition values. To evaluate the selectivity to sulfate anions, additional experiments were conducted on water complex samples containing high concentrations of such ions as interfering.

For orientation: pKa means the negative logarithm of the acid dissociation constant. Read a low pKa as a stronger acid or weaker base. For `CC(C)NC(=Nc1ccc2c(c1)Cc1ccccc1-2)NC(C)C` [guanylated fluorophore (A), 2-(9H-fluoren-2-yl)-1,3-diisopropylguanidine], the Ka was 1.26x10^5 in series [1] (1:1 complex (A)(SO4^2-), complex A) and 1.55x10^10 in series [1] (2:1 complex (A)2(SO4^2-), complex B). For the same compound, the “fluorescence changes (%) / emission intensity” value in series [2] (successive additions of 100 µM of anions to 5 µM solution in water (Figure 6b)) is “exclusively decreases when sulfate anions are added”. The fluorescence quenching in series [2] (sulfate anions 100 µM, fluorophore 10 µM, water) is -2 fold. In addition, the pKa in series [3] (aqueous solution (Milli-Q water), water, from absorption spectra at different pH (A / AH^+ equilibrium)) amounted to 11.1. Also, the “intensity of the fluorescence and the wavelength of emission” value in series [3] (pH in the range of 5-12, λex 272 nm) is “only mildly affected”. The sensitivity result in series [4] (HPO4^2-) is “no sensitivity was found”; in series [4] (PO4^3-), “no sensitivity was found”; in series [4] (SO3^2-) it was “sensitivity was not observed”; in series [4] (dodecyl sulfate (SDS)), “sensitivity was not observed”.
